The text below walks through data of US9150554B2, “Fused ring inhibitors of hepatitis C” (Presidio Pharmaceuticals, Inc., priority 2009, dated 2015).

The subject of the assay is HCV 1b_Huh-Luc/Neo-ET cell line persistently expressing a bicistronic genotype 1b replicon in Huh 7 cells. Nature of the assay: HCV replicon assay, luciferase enzyme activity readout. The assay is classed as cell-based. To be noted: Hepatitis C virus, 72 h incubation, average EC50 range, read-out: Inhibition of HCV genotype 1b. The method, then: Biological activity of the compounds of the invention was determined using an HCV replicon assay. The HCV 1b_Huh-Luc/Neo-ET cell line persistently expressing a bicistronic genotype 1b replicon in Huh 7 cells was obtained from ReBLikon GMBH. This cell line was used to test compound inhibition using luciferase enzyme activity readout as a measurement of compound inhibition of replicon levels.
On Day 1 (the day after plating cells), each compound is added in triplicate to the cells. Plates are incubated for 72 h prior to determining luciferase levels. Enzyme activity was measured using a Bright-Glo Kit (cat. number E2620) manufactured by Promega Corporation. The following equation was used to generate a percent control value for each compound. % Control=(Compound Luciferase Level/Control Luciferase Level)*100
The EC50 value was determined using GraphPad Prism and the following equation: Y=Bottom asymptote+(Top asymptote−Bottom asymptote)/(1+10^((Log EC50−X)*HillSlope))
EC50 values of compounds are determined several times in the replicon assay to generate average EC50 values. […]
(In general: In antiviral work, replicon cells carry a viral genome segment that copies itself.)
Consider `CC[C@H](C)[C@H](NC(=O)OC)C(=O)N1CCC[C@H]1c1ncc(-c2ccc3c(c2)Oc2ccc(-c4cnc([C@@H]5CCCN5C(=O)[C@@H](NC(=O)OC)[C@@H](C)CC)[nH]4)cc2O3)[nH]1` [Compound 46], for which the EC50 is under 1 nM.
Take `COC(=O)N[C@H](C(=O)N1CCCC[C@H]1c1ncc(-c2ccc3c(c2)Oc2ccc(-c4cnc([C@@H]5CCCCN5C(=O)[C@@H](NC(=O)OC)C(C)C)[nH]4)cc2O3)[nH]1)C(C)C` [Compound 47]: the EC50 was under 1 nM.
In the case of `COC(=O)N[C@@H](C(=O)N1CCCC[C@H]1c1ncc(-c2ccc3c(c2)Oc2ccc(-c4cnc([C@@H]5CCCCN5C(=O)[C@H](NC(=O)OC)c5ccccc5)[nH]4)cc2O3)[nH]1)c1ccccc1` [Compound 48] it was under 1 nM.
Then `COC(=O)N[C@H](C(=O)N1CCC[C@H]1c1ncc(-c2ccc3oc4cc(-c5cnc([C@@H]6CCCN6C(=O)[C@@H](NC(=O)OC)C(C)C)[nH]5)c(Cl)cc4c(=O)c3c2)[nH]1)C(C)C` [Compound 49], with under 1 nM.
In the case of `COC(=O)N[C@H](C(=O)N1CCC[C@H]1c1ncc(-c2ccc3oc4cc(-c5cnc([C@@H]6CCCN6C(=O)[C@@H](NC(=O)OC)[C@@H](C)OC)[nH]5)c(Cl)cc4c(=O)c3c2)[nH]1)[C@@H](C)OC` [Compound 50] it was under 1 nM.
For the compound `CC[C@H](C)[C@H](NC(=O)OC)C(=O)N1CCC[C@H]1c1ncc(-c2ccc3oc4cc(-c5cnc([C@@H]6CCCN6C(=O)[C@@H](NC(=O)OC)[C@@H](C)CC)[nH]5)c(Cl)cc4c(=O)c3c2)[nH]1` [Compound 51], the EC50 is under 1 nM.
Then `COC(=O)N[C@H](C(=O)N1CCC[C@H]1c1ncc(-c2ccc3oc4cc(-c5cnc([C@@H]6CCCN6C(=O)[C@@H](NC(=O)OC)C6CCOCC6)[nH]5)c(Cl)cc4c(=O)c3c2)[nH]1)C1CCOCC1` [Compound 52], with under 1 nM.
Then `CC[C@H](C)[C@H](NC(=O)OC)C(=O)N1CCC[C@H]1c1ncc(-c2ccc3c(c2)Cc2cc(F)c(-c4cnc([C@@H]5CCCN5C(=O)[C@@H](NC(=O)OC)[C@@H](C)CC)[nH]4)cc2O3)[nH]1` [Compound 53], with under 1 nM.
In the case of `CC[C@H](C)[C@H](NC(=O)OC)C(=O)N1CCC[C@H]1c1ncc(-c2cc3c(cc2F)Cc2cc(-c4cnc([C@@H]5CCCN5C(=O)[C@@H](NC(=O)OC)[C@@H](C)OC)[nH]4)ccc2O3)[nH]1` [Compound 54] it was under 1 nM; in that of `C=CC[C@H](NC(=O)OC)C(=O)N1CCC[C@H]1c1ncc(-c2ccc3c(c2)Oc2ccc(-c4cnc([C@@H]5CCCN5C(=O)[C@H](CC=C)NC(=O)OC)[nH]4)cc2O3)[nH]1` [Compound 55], under 1 nM; in that of `C#CC[C@H](NC(=O)OC)C(=O)N1CCC[C@H]1c1ncc(-c2ccc3c(c2)Oc2ccc(-c4cnc([C@@H]5CCCN5C(=O)[C@H](CC#C)NC(=O)OC)[nH]4)cc2O3)[nH]1` [Compound 56], under 1 nM.
As for `[2H]C([2H])([2H])C([2H])(C([2H])([2H])[2H])[C@]([2H])(NC(=O)OC)C(=O)N1CCC[C@H]1c1ncc(-c2ccc3c(c2)Oc2ccc(-c4cnc([C@@H]5CCCN5C(=O)[C@@]([2H])(NC(=O)OC)C([2H])(C([2H])([2H])[2H])C([2H])([2H])[2H])[nH]4)cc2O3)[nH]1` [Compound 57], the EC50 was under 1 nM.
In the case of `COC(=O)N[C@@H](C(=O)N1CCC[C@H]1c1ncc(-c2ccc3oc4cc(-c5cnc([C@@H]6CCCN6C(=O)[C@H](NC(=O)OC)c6ccccc6)[nH]5)c(Cl)cc4c(=O)c3c2)[nH]1)c1ccccc1` [Compound 58] it was under 1 nM; in that of `CC[C@H](C)[C@H](NC(=O)OC)C(=O)N1CCC[C@H]1c1ncc(-c2cc3c(cc2F)Cc2cc(-c4cnc([C@@H]5CCCN5C(=O)[C@@H](NC(=O)OC)C5CCOCC5)[nH]4)ccc2O3)[nH]1` [Compound 59], under 1 nM.
Take `CC[C@H](C)[C@H](NC(=O)OC)C(=O)N1CCC[C@H]1c1ncc(-c2cc3c(cc2F)Cc2cc(-c4cnc([C@@H]5CCCN5C(=O)[C@H](COC)NC(=O)OC)[nH]4)ccc2O3)[nH]1` [Compound 60]: the EC50 is under 1 nM.
In the case of `COC(=O)N[C@H](C(=O)N1CCC[C@H]1c1ncc(-c2ccc3c(c2)Cc2cc(Cl)c(-c4cnc([C@@H]5CCCN5C(=O)[C@@H](NC(=O)OC)C(C)C)[nH]4)cc2O3)[nH]1)C(C)C` [Compound 61] it was under 1 nM; in that of `COC(=O)N[C@H](C(=O)N1CCC[C@H]1c1ncc(-c2ccc3c(c2)Cc2cc(Cl)c(-c4cnc([C@@H]5CCCN5C(=O)[C@@H](NC(=O)OC)[C@@H](C)OC)[nH]4)cc2O3)[nH]1)[C@@H](C)OC` [Compound 62], under 1 nM.
Take `CC[C@H](C)[C@H](NC(=O)OC)C(=O)N1CCC[C@H]1c1ncc(-c2ccc3c(c2)Cc2cc(Cl)c(-c4cnc([C@@H]5CCCN5C(=O)[C@@H](NC(=O)OC)[C@@H](C)CC)[nH]4)cc2O3)[nH]1` [Compound 63]: the EC50 was under 1 nM.
On to `COC(=O)N[C@H](C(=O)N1CCOC[C@H]1c1ncc(-c2ccc3c(c2)Oc2ccc(-c4cnc([C@@H]5COCCN5C(=O)[C@@H](NC(=O)OC)C(C)C)[nH]4)cc2O3)[nH]1)C(C)C` [Compound 64], for which the EC50 was under 1 nM.
Turning to `COC(=O)N[C@@H](C(=O)N1CCOC[C@H]1c1ncc(-c2ccc3c(c2)Oc2ccc(-c4cnc([C@@H]5COCCN5C(=O)[C@H](NC(=O)OC)c5ccccc5)[nH]4)cc2O3)[nH]1)c1ccccc1` [Compound 65], the EC50 is under 1 nM.
For the compound `COC(=O)N[C@H](C(=O)N1CSC[C@H]1c1ncc(-c2ccc3c(c2)Oc2ccc(-c4cnc([C@@H]5CSCN5C(=O)[C@@H](NC(=O)OC)C5CCCC5)[nH]4)cc2O3)[nH]1)C1CCCC1` [Compound 66], the EC50 is under 1 nM.
As for `CC[C@H](C)[C@H](NC(=O)OC)C(=O)N1CSC[C@H]1c1ncc(-c2ccc3c(c2)Oc2ccc(-c4cnc([C@@H]5CSCN5C(=O)[C@@H](NC(=O)OC)[C@@H](C)CC)[nH]4)cc2O3)[nH]1` [Compound 67], the EC50 was under 1 nM.
